# Paper PMC7399337, “Biological Properties and Absolute Configuration of Flavanones From Calceolaria thyrsiflora Graham” (Frontiers in Pharmacology, 2020)
# Like-named read-outs stand apart in the source and are kept apart here.
# How the values were obtained:
# [1] = tested on: B16-F10 mouse metastatic melanoma cells; assay: In vitro cytotoxic activity, CyQuant cell viability, 72 h; format: cell-based; conditions: for CC50: Mus musculus, B16-F10, 72 h, read-out: LC50 ± SD
# Experimental: Cell viability was measured using a CyQuant® Direct Cell Proliferation Assay Kit (Life Technologies, Grand Island, NY, USA) following the manufacturer’s instruction. Briefly, 5,000 cells per well were seeded onto a flat-bottom 96-well plate in 200 μL final volume. Six hours after seeding, the culture medium was replaced by the medium containing the tested compounds at 0.01 to 100 µM concentrations in DMSO (0.1% final concentration) during 72 h. Untreated cells (medium containing only 0.1% DMSO) were used as controls. At the end of the incubation, 100 μL of culture medium was removed from each well and replaced by detection reagent solution provided by the kit (which is a 1:5 mixture of the reagent CyQUANT®, direct nucleic acid stain and the reagent labeled as CyQUANT® direct background suppressor I). […] At least four independent experiments were performed for each concentration.
# P. cinnamomi = assay: In vitro fungicidal activity, radial mycelial growth test on PDA; format: cell-based, Phytophtora cinnamomi; conditions: Phytophthora cinnamomi, 120 h, read-out: Percentage of inhibition on in vitro mycelial growth of P. cinnamomi; for inhibition at 50 µg/mL: 50 mg/L; for inhibition at 150 µg/mL: 150 mg/L; for inhibition at 250 µg/mL: 250 mg/L
# Experimental: A strain of Botrytis cinerea isolated from a naturally infected grape (Vitis vinifera) was used in all experiments. Isolated Phytophtora cinnamomi was provided by the Agricultural and Livestock Service of Valparaíso. Both strains were maintained on a potato dextrose agar (PDA) medium (DIFCO, Detroit, MI) at 4°C. The inoculum of both pathogens was grown on PDA and incubates in dark at 23°C for 5 days in the case of B. cinerea and 8 days for P. cinnamomi.
# The fungicidal activity of flavanones, extracts, the negative control (C-) composed of solvent (1% ethanol), and the positive control (C+, commercial fungicide Captan® and metalaxil® for B. cinerea and P. cinnamomi, respectively) were assessed using the radial growth test technique on PDA medium as described ([Taborga et al., 2015]). All test samples were dissolved in ethanol (1%) and water, to obtain final concentrations of 50, 150, and 250 mg/L in the PDA medium. A plug (4 mm) of PDA medium with five-day-old mycelium colonies of the pathogen was placed at the center of a Petri dish with PDA medium with or without studied test samples and were incubated at 23°C in dark for 72 h (B. cinerea) and 120 h (P. cinnamomi). After incubation, the diameters of colonies were measured and the inhibition percentage was calculated as the average of three replicas compared to C-.
# [2] = In vitro cytotoxic activity, CyQuant cell viability, 72 h; format: cell-based; conditions: mouse
# Experimental: (§1) The used cell lines include MDA-MB-231 human breast adenocarcinoma cells, B16-F10 mouse metastatic melanoma cells and MEF primary mouse embryonic fibroblast. Cells were maintained in a DMEM high glucose medium (Mediatech, Manassas, VA, USA) supplemented with 10% (MDA-MB-231 and B16-F10) or 15% (MEF) heat-inactivated fetal bovine serum (HyClone Laboratories, South Logan, USA), 100 IU ml^-1 penicillin and 100 μg ml^-1 streptomycin while maintained at 37°C in a 5% CO2 humidified atmosphere. Cell viability was measured using a CyQuant® Direct Cell Proliferation Assay Kit (Life Technologies, Grand Island, NY, USA) following the manufacturer’s instruction. Briefly, 5,000 cells per well were seeded onto a flat-bottom 96-well plate in 200 μL final volume. Six hours after seeding, the culture medium was replaced by the medium containing the tested compounds at 0.01 to 100 µM concentrations in DMSO (0.1% final concentration) during 72 h. Untreated cells (medium containing only 0.1% DMSO) were used as controls. At the end of the incubation, 100 μL of culture medium was removed from each well and replaced by detection reagent solution provided by the kit (which is a 1:5 mixture of the reagent CyQUANT®, direct nucleic acid stain and the reagent labeled as CyQUANT® direct background suppressor I). Cells were incubated for 1 h and fluorescence emission was measured at 535 nm with excitation at 480 nm in a microplate reader (Infinite 200 PRO, Tecan, Grödig, Austria). At least four independent experiments were performed for each concentration. The results from each experiment were transformed into percentage of controls and the LC50 values were graphically obtained from the dose-response curves. The LC50 value was obtained adjusting the dose-response curve to sigmoidal curves (variable slope) using the GraphPad Prisma 6.0 software ([GraphPad-Software, 2015]).
# [3] = tested on: MDA-MB-231 human breast adenocarcinoma cells; assay: as above; format: cell-based; conditions: for CC50: Homo sapiens, MDA-MB-231, 72 h, read-out: LC50 ± SD
# Experimental: as §1
SMILES,"LC50 ± SD ([1]; B16-F10, 72 h)",CC50 [1] [µM],inhibition at 50 µg/mL (P. cinnamomi) [%],inhibition at 150 µg/mL (P. cinnamomi) [%],inhibition at 250 µg/mL (P. cinnamomi) [%],"CC50 at 72 h ([2]; MEF (non-cancerous cells), 72 h, read-out: LC50 ± SD) [µM]",CC50 [3] [µM],"LC50 ± SD ([3]; MDA-MB-231, 72 h)",fold less cytotoxic activity against B16-F10 than etoposide ([1]; B16-F10) [fold],fold less cytotoxic activity against B16-F10 than taxol ([1]; B16-F10) [fold],selectivity towards B16-F10 as compared to non-cancerous cells (MEF) ([1]; LC50 MEF versus B16-F10) [fold],CC50 at 72 h [2] [µM]
"COc1cc(O)c2c(c1)O[C@H](c1ccc(O)cc1)CC2=O [Compound 1, (-)-(2S)-5,4’-dihydroxy-7-methoxyflavanone]",no significant cytotoxic activity,72 ± 7.16,0,0,0,146 ± 23.4,~1100,no significant cytotoxic activity,–,–,–,–
"COc1cc(O)c2c(c1)O[C@H](c1ccc(O)c(O)c1)CC2=O [Compound 2, (-)-(2S)-5,3’,4’-trihydroxy-7-methoxyflavanone]",–,8.07 ± 1.61,0,33 ± 5.8,42 ± 5.3,–,48.7 ± 9.32,–,4.6,17,4,31 ± 3.69
